According to US11679110B2, “Methods of treating disorders using CSF1R inhibitors” (Deciphera Pharmaceuticals, LLC, priority 2018, dated 2023):
Where two headings read alike, the source gives them in different places. Marks after values point to notes of the source that are not given here.

Legend:
[1] = rat, in vivo
[2] = dog, in vivo
[3] = Plasma pharmacokinetics of Compound 1 in patients with advanced solid tumor malignancies and TGCT; format: in vivo, human; details: for Cmax / AUC(0-t) / Tmax: human, plasma, oral; for Tmax: Median (Min, Max)
Description: PK analysis was conducted on all 38 patients. Serial blood samples were collected for PK and took place on either Day −7, Cycle 1, Day 1 (C1D1) and C2D1 at pre-dose, 0.5, 1, 2, 4, 6, 8, 10-12, and 24 hr time points or Day −7, C1D1, C1D8, and C2D1 at pre-dose, 1, 2, 4, 6, and 8 hr time points, or C1D1, C1D8, and C2D1 at pre-dose, 1, 2, 4, 6, and 8 hr time points. High fat meal was given prior to dosing of Compound 1 on Day −7. PD effects were measured by two methodologies: 1) depletion of CSF1R-expressing monocytes in peripheral blood (Cohorts 1-7) from C1D1, C1D15 and C2D1; and 2) increase of plasma levels of CSF1 and IL-34, the ligands for CSF1R (Cohorts 1-7) on C1D1, C1D15, and C2D1. For the CD16^+ monocyte assay, whole blood collected in an EDTA vacutainer was aliquoted into tubes and incubated with fluorescently-labeled antibodies (CD14-Alexa488 (BD Pharmingen); CD16-PE-Cy7 (BD Pharmingen); and TIE2-APC (R&D Systems). After incubation, red blood cells were lysed, and the remaining cells were washed several times before being analyzed on a flow cytometer. For the plasma CSF1 assay or IL-34, whole blood collected in an EDTA vacutainer was centrifuged, and the plasma was collected and frozen. Plasma levels of CSF1 or IL-34 were measured using a commercial ELISA kit (R&D Systems).
Cohort 1 had daily dosing.

## Cc1nc(-c2cnc(NC(C)C)n(C)c2=O)ccc1Oc1ccnc(-c2cnn(C)c2)c1 [Compound 1, 2-(isopropylamino)-3-methyl-5-(6-methyl-5-((2-(1-methyl-1H-pyrazol-4-yl)pyridin-4-yl)oxy)pyridin-2-yl)pyrimidin-4(3H)-one]
[1]; Sprague-Dawley, 13 weeks
  STD10: 7.5 mg/kg/day
[1]
  increases in AST, ALT, GLDH and ALP activities: minimal or mild
[2]; beagle, 4 weeks
  HNSTD (Highest Non-Serious Toxic Dose): 7.5 mg/kg/day
[2]
  safety margin at NOAEL/HNSTD relative to clinical exposure (AUC): about 2.1 ×
[3]; Cohort 1 10 mg QD, C1D8, Geo Mean
  Ctrough: 331 ng/mL
[3]; Cohort 1 10 mg QD, C2D1, Geo Mean
  Ctrough: 447^c ng/mL
[3]; Cohort 2 10 mg QD x 5 d, BIW maintenance dose, C1D8, Geo Mean
  Ctrough: 184 ng/mL
[3]; Cohort 2 10 mg QD x 5 d, BIW maintenance dose, C2D1, Geo Mean
  Ctrough: 122 ng/mL
[3]; Cohort 2 10 mg Twice Weekly after 5-day QD loading dose, C2D1, GM (CV %)
  AUC0-8: 1030 (63) hr*ng/mL
[3]; Cohort 3 20 mg QD x 5 d, QW maintenance dose, C1D8, Geo Mean
  Ctrough: 850 ng/mL
[3]; Cohort 3 20 mg QD x 5 d, QW maintenance dose, C2D1, Geo Mean
  Ctrough: 205 ng/mL
[3]; Cohort 3 20 mg Weekly after 5-day QD loading dose, C2D1, GM (CV %)
  AUC0-8: 3380 ng·h/mL
[3]; Cohort 4 20 mg QD x 5 d, BIW maintenance dose, C1D8, Geo Mean
  Ctrough: 483 ng/mL
[3]; Cohort 4 20 mg QD x 5 d, BIW maintenance dose, C2D1, Geo Mean
  Ctrough: 441 ng/mL
[3]; Cohort 4 20 mg Twice Weekly after 5-day QD loading dose, C2D1, GM (CV %)
  AUC0-8: 4300 (2.82) hr*ng/mL
[3]; Cohort 5 30 mg QD x 5 d, BIW maintenance dose, C1D8, Geo Mean
  Ctrough: 1020 ng/mL
[3]; Cohort 5 30 mg QD x 5 d, BIW maintenance dose, C2D1, Geo Mean
  Ctrough: 574 ng/mL
[3]; Cohort 5 30 mg Twice Weekly after 5-day QD loading dose, C2D1, GM (CV %)
  AUC0-8: 4750 (53.2) hr*ng/mL
[3]; Cohort 6 30 mg QD x 5 d, BIW maintenance dose (so in the source), C2D1, Geo Mean
  Ctrough: 570 ng/mL
[3]; Cohort 6 40 mg Twice Weekly after 5-day QD loading dose, C2D1, GM (CV %)
  AUC0-8: 7290 (28.1) hr*ng/mL
[3]; Cohort 7 20 mg QD after 3-day 50 mg QD loading dose, C2D1, GM (CV %)
  AUC0-8: 5580 (86.8) hr*ng/mL
[3]; Cohort 7 50 mg QD x 3 d, QD maintenance dose, C2D1, Geo Mean
  Ctrough: 1040 ng/mL
[3]; 10 mg, Cohort 1 10 mg QD, C1D1, GM (CV %)
  Cmax: 155 ng/mL
[3]; 10 mg, Cohort 1 10 mg QD, C1D1, GM (CV %), read-out: AUC0-8
  AUC(0-t): 770 ng·h/mL
[3]; 10 mg, Cohort 1 10 mg QD, C1D1, Geo Mean
  Cmax: 155 ng/mL
[3]; 10 mg, Cohort 1 10 mg QD, C1D1, Geo Mean, read-out: AUC0-8 h
  AUC(0-t): 770 ng·h/mL
[3]; 10 mg, Cohort 1 10 mg QD, C1D1
  Tmax: 1 h
[3]; 10 mg, Cohort 1 10 mg QD, C2D1, GM (CV %)
  Cmax: 767 ng/mL
[3]; 10 mg, Cohort 1 10 mg QD, C2D1, GM (CV %), read-out: AUC0-8
  AUC(0-t): 4510 ng·h/mL
[3]; 10 mg, Cohort 1 10 mg QD, C2D1, Geo Mean
  Cmax: 767 ng/mL
[3]; 10 mg, Cohort 1 10 mg QD, C2D1, Geo Mean, read-out: AUC0-8 h
  AUC(0-t): 4470 ng·h/mL
[3]; 10 mg, Cohort 1 10 mg QD, C2D1
  Tmax: 0.5 h
[3]; 10 mg, Cohort 1 10 mg QD, Day -7, Geo Mean
  Cmax: 75.9 ng/mL
[3]; 10 mg, Cohort 1 10 mg QD, Day -7, Geo Mean, read-out: AUC0-8 h
  AUC(0-t): 429 ng·h/mL
[3]; 10 mg, Cohort 1 10 mg QD, Day-7, GM (CV %)
  Cmax: 75.9 ng/mL
[3]; 10 mg, Cohort 1 10 mg QD, Day-7, GM (CV %), read-out: AUC0-8
  AUC(0-t): 425 ng·h/mL
[3]; 10 mg, Cohort 2 10 mg QD x 5 d, BIW maintenance dose, C1D1, Geo Mean
  Cmax: 168 ng/mL
[3]; 10 mg, Cohort 2 10 mg QD x 5 d, BIW maintenance dose, C1D1, Geo Mean, read-out: AUC0-8 h
  AUC(0-t): 1080 ng·h/mL
[3]; 10 mg, Cohort 2 10 mg QD x 5 d, BIW maintenance dose, C1D8, Geo Mean
  Cmax: 248 ng/mL
[3]; 10 mg, Cohort 2 10 mg QD x 5 d, BIW maintenance dose, C1D8, Geo Mean, read-out: AUC0-8 h
  AUC(0-t): 1730 ng·h/mL
[3]; 10 mg, Cohort 2 10 mg QD x 5 d, BIW maintenance dose, C2D1, Geo Mean
  Cmax: 149 ng/mL
[3]; 10 mg, Cohort 2 10 mg QD x 5 d, BIW maintenance dose, C2D1, Geo Mean, read-out: AUC0-8 h
  AUC(0-t): 1030 ng·h/mL
[3]; 10 mg, Cohort 2 10 mg QD x 5 d, BIW maintenance dose, Day -7, Geo Mean
  Cmax: 119 ng/mL
[3]; 10 mg, Cohort 2 10 mg QD x 5 d, BIW maintenance dose, Day -7, Geo Mean, read-out: AUC0-8 h
  AUC(0-t): 781 ng·h/mL
[3]; 10 mg, Cohort 2 10 mg Twice Weekly after 5-day QD loading dose, C1D1, GM (CV %)
  Cmax: 94 ng/mL
[3]; 10 mg, Cohort 2 10 mg Twice Weekly after 5-day QD loading dose, C1D1, GM (CV %), read-out: AUC0-8
  AUC(0-t): 467 ng·h/mL
[3]; 10 mg, Cohort 2 10 mg Twice Weekly after 5-day QD loading dose, C1D8, GM (CV %)
  Cmax: 248 ng/mL
[3]; 10 mg, Cohort 2 10 mg Twice Weekly after 5-day QD loading dose, C1D8, GM (CV %), read-out: AUC0-8
  AUC(0-t): 1730 ng·h/mL
[3]; 10 mg, Cohort 2 10 mg Twice Weekly after 5-day QD loading dose, C1D8
  Tmax: 1 h
[3]; 10 mg, Cohort 2 10 mg Twice Weekly after 5-day QD loading dose, C2D1, GM (CV %)
  Cmax: 149 ng/mL
[3]; 10 mg, Cohort 2 10 mg Twice Weekly after 5-day QD loading dose, C2D1, GM (CV %), read-out: AUC0-8
  AUC(0-t): 1030 ng·h/mL
[3]; 10 mg, Cohort 2 10 mg Twice Weekly after 5-day QD loading dose, C2D1
  Tmax: 1 h
[3]; 10 mg, Cohort 2 10 mg Twice Weekly after 5-day QD loading dose, Day-7, GM (CV %)
  Cmax: 80.2 ng/mL
[3]; 10 mg, Cohort 2 10 mg Twice Weekly after 5-day QD loading dose, Day-7, GM (CV %), read-out: AUC0-8
  AUC(0-t): 353 ng·h/mL
[3]; 20 mg, Cohort 3 20 mg QD x 5 d, QW maintenance dose, C1D1, Geo Mean
  Cmax: 466 ng/mL
[3]; 20 mg, Cohort 3 20 mg QD x 5 d, QW maintenance dose, C1D1, Geo Mean, read-out: AUC0-8 h
  AUC(0-t): 2510 ng·h/mL
[3]; 20 mg, Cohort 3 20 mg QD x 5 d, QW maintenance dose, C1D8, Geo Mean
  Cmax: 1160 ng/mL
[3]; 20 mg, Cohort 3 20 mg QD x 5 d, QW maintenance dose, C1D8, Geo Mean, read-out: AUC0-8 h
  AUC(0-t): 7410 ng·h/mL
[3]; 20 mg, Cohort 3 20 mg QD x 5 d, QW maintenance dose, C2D1, Geo Mean
  Cmax: 530 ng/mL
[3]; 20 mg, Cohort 3 20 mg QD x 5 d, QW maintenance dose, C2D1, Geo Mean, read-out: AUC0-8 h
  AUC(0-t): 3380 ng·h/mL
[3]; 20 mg, Cohort 3 20 mg QD x 5 d, QW maintenance dose, Day -7, Geo Mean
  Cmax: 242 ng/mL
[3]; 20 mg, Cohort 3 20 mg QD x 5 d, QW maintenance dose, Day -7, Geo Mean, read-out: AUC0-8 h
  AUC(0-t): 1320 ng·h/mL
[3]; 20 mg, Cohort 3 20 mg Weekly after 5-day QD loading dose, C1D1, GM (CV %)
  Cmax: 466 ng/mL
[3]; 20 mg, Cohort 3 20 mg Weekly after 5-day QD loading dose, C1D1, GM (CV %), read-out: AUC0-8
  AUC(0-t): 2510 ng·h/mL
[3]; 20 mg, Cohort 3 20 mg Weekly after 5-day QD loading dose, C1D1
  Tmax: 1 h
[3]; 20 mg, Cohort 3 20 mg Weekly after 5-day QD loading dose, C1D8, GM (CV %)
  Cmax: 1160 ng/mL
[3]; 20 mg, Cohort 3 20 mg Weekly after 5-day QD loading dose, C1D8, GM (CV %), read-out: AUC0-8
  AUC(0-t): 7290 ng·h/mL
[3]; 20 mg, Cohort 3 20 mg Weekly after 5-day QD loading dose, C1D8
  Tmax: 1 h
[3]; 20 mg, Cohort 3 20 mg Weekly after 5-day QD loading dose, C2D1, GM (CV %)
  Cmax: 530 ng/mL
